Assay results published in US20030100769A1, “Cyclic amidine compounds” (priority 2000, published 2003).

How the values were obtained:
[1] = target: T1, α4β2 subtype of nicotinic acetylcholine receptors (Rattus norvegicus, UniProt P09483+P12390); experiment: Binding assay at α4β2 subtype of nicotinic acetylcholine receptors ([3H]-cytisine, rat brain membrane)
T1 construct: examined using rat brain membrane obtained from whole homogenized brain; from tissue; host or cells: rat whole brain membranes (Fischer-344 male rats)
From the text: (§1) The methods for evaluating the binding capabilities of the compounds at nicotinic acetylcholine receptors are different by subtypes of receptors. The binding capabilities of the compounds at α4β2 nicotinic acetylcholine receptors are examined using rat brain membrane obtained from whole homogenized brain, and determining the inhibiting rate of the compounds against [^3H]-cytisine binding to said brain membrane. Furthermore, the binding capabilities of the compounds at α1β1γδ nicotinic acetylcholine receptors are examined using homogenized rat muscle, and determining the inhibiting rate of the compounds against [^3H]-α-bungarotoxin binding to said muscle homogenate.
Binding Assays at α4β2 Subtype of Nicotinic Acetylcholine Receptors
(1) Preparation of Rat Brain Membrane Containing α4β2 Subtype of Nicotinic Acetylcholine Receptors
Rats were housed in the breeding cage controlled of the room temperature at 23±1° C., and the humidity of 55±5% for 1 to 4 weeks. Rats (3 to 4 rats per a cage) were housed with lights on for 12 hours daily (from 7:00 to 19:00), and allowed free access to food and water.
Preparation of rat brain membrane containing α4β2 subtype of nicotinic acetylcholine receptors was performed as follow. That is, rat brains were isolated just after sacrificed by decapitation, washed with ice-cooled saline solution and then frozen at −80° C. with liquid nitrogen and stored till using. After thawing the frozen brain, the brain was homogenized in 10 volumes of ice-cooled buffer solution (50 mM of Tris-HCl, 120 mM of NaCl, 5 mM of KCl, 1 mM of MgCl2, 2 mM of CaCl2; pH 7.4; 4° C.) using homogenizer (HG30, Hitachi Kohki Ltd.) for 30 seconds, and the homogenate were centrifuged under 1,000×G for 10 minutes at 4° C. The resulting supernatant was separated and the pellet was homogenized again with half volume of aforementioned prior buffer solution and centrifuged under the same conditions. Combined supernatant was further centrifuged under 40,000×G for 20 minutes at 4° C. The pellet was suspended in buffer solution and used for binding assays at receptors.
(2) Experiments of α4β2 Subtype of Nicotinic Acetylcholine Receptors Binding
Suspensions of membrane pellets containing 400-600 μg of protein were added to test tubes containing test compounds and [^3H]-cytisine (2 nM) in a final volume of 200 μl and incubated for 75 minutes in ice-cooled bath. The samples were isolated by vacuum filtration onto Whatman GF/B filters, which were prerinsed with 0.5% polyethylenimine just prior to sample filtration, using Brandel multi manifold cell harvester. The filters were rapidly washed with buffer solution (3×1 ml). The filters were counted in 3 ml of clearsol I (Nacalai Tesque Inc.).
The analyses of the experimental results were conducted by using the Accufit Competition Program (Beckman Ltd.).

[2] = target: α1β1γδ subtype of nicotinic acetylcholine receptors (Rattus norvegicus, UniProt P18916+P25108+P25109+P25110); experiment: biochemical; type: binding
From the text: as §1
Binding Assays at α1β1γδ Subtype of Nicotinic Acetylcholine Receptors
The affinity of the compounds of the present invention to α1β1γδ subtype of nicotinic acetylcholine receptors was measured by the following method, which was modified method described by Garcha H. S., Thomas P., Spivak C.
(1) Preparation of Rat Skeletal Muscles Containing α1β1γδ Subtype of Nicotinic Acetylcholine Receptors
The substantially same animals described in the Biological Experiment 1 were used.
The isolation of α1β1γδ subtype of nicotinic acetylcholine receptors was performed as follow. That is, rat posterior skeletal muscles were isolated just after sacrificed by decapitation, washed with ice-cooled saline solution and then frozen at −80° C. with liquid nitrogen and stored till using. After thawing the frozen muscles, tissue was homogenized ([…]) with buffer solution [2.5 mM of sodium phosphate buffer (pH:7.2), 90 mM of NaCl, 2 mM of KCl, 1 mM of EDTA, 2 mM of benzamidine, 0.1 mM of benzethonium chloride, 0.1 mM of PMSF, 0.01% of sodium azide] in Waring blender (Waring blender 34BL97; WARING PRODUCTS DIVISION DYNAMICS CORPORATION OF AMERICA) for 60 seconds. The homogenate were centrifuged under 20,000×G for 60 minutes at 4° C. The supernatant was separated and the resulting pellet was added to the same buffer (1.5 ml/g wet weight), and homogenized under the same conditions. Triton X100 (2% w/v) was added and the mixture was stirred for 3 hours at 4° C. The centrifugation at 100,000×G for 60 minutes at 4° C. yielded the rat muscle extract as supernatant. This was stored at 4° C. for up to 4 weeks, and used for binding assays at receptors.
(2) Experiments of α1β1γδ Subtype of Nicotinic Acetylcholine Receptors Binding
Receptors binding experiments were performed as follow. That is, the extract of rat muscle containing 600-900 μg of protein was added to test tubes containing test compounds and incubated for 15 minutes at 37° C. Then, to this mixture was added 1 nM of [^3H]-α-bungarotoxin (α-Bgt) and further incubated for 2 hours. The samples were isolated by vacuum filtration onto Whatman GF/B filters, which were prerinsed with 0.5% polyethylenimine just prior to sample filtration, using Brandel multi manifold cell harvester. The filters were rapidly rinsed with washing solution (10 mM of KH2PO4, 150 mM of NaCl, pH 7.2, room temperature) (5×1 ml). The filters were counted in 3 ml of clearsol I (Nacalai Tesque Inc.). The determination of nonspecific binding was incubated in the presence of 1 μM α-Bgt. […] In the receptor binding experiments, said buffer solution was added for adjusting the final concentration of BSA to be 0.05%.
The analyses of the experimental results were conducted by the same way as described in the Biological Experiment 1.

[3] = target: T2, human α4β2 subtype of nicotinic acetylcholine receptors (Homo sapiens, UniProt P17787+P43681); experiment: Agonist activities at human α4β2 subtype of nicotinic acetylcholine receptors expressed in Xenopus oocytes (membrane potential holding method); type: cell-based; settings: 100 μM test compound, relative to 10 μM acetylcholine (100%)
T2 construct: expressed in transfected cells; host or cells: Xenopus laevis oocytes injected with hnACh-R α4 and β2 cRNA (pSP64 polyA)
Experimental: The agonist effect in human α4β2 subtype of nicotinic acetylcholine receptors are examined by using human nicotinic acetylcholine receptors prepared in oocytes of Xenopus laevis, which is injected with cRNA from the corresponding cloning cDNA of human α4 and β2 subunits of nicotinic acetylcholine receptors, and to measure the expression of the electric response by adding the test compounds to perfusion solution by means of membrane potential holding method.
Agonist Activities at Human α4β2 Subtype of Nicotinic Acetylcholine Receptors
(1) Preparation of cRNA of Human α4β2 Subtype of Nicotinic Acetylcholine Receptors
The obtained hnACh-R α4 cDNA and hnACh-R β2 cDNA were inserted to the cRNA expression vector (pSP64 polyA) having SP6 RNA promoter to construct hnACh-R α4/pSP64 polyA and hnACh-R β2/pSP64 polyA, respectively. After cutting from expression vector by restriction enzyme (EcoRI), transcription was performed by affecting SP6 RNA polymerase in the presence of cap analogues to obtain hnACh-R α4 cRNA and hnACh-R β2 cRNA, respectively.
(2) Expression of Human α4β2 Subtype Nicotinic Acetylcholine Receptors in Xenopus Oocytes
Oocytes were purchased from Kitanihonseibutsukyohzai Co., Ltd., which were already enucleated from Xenopus laevis, and used in this experiment.
The oocytes were treated with collagenase (Sigma type I; 1 mg/ml) in calcium-free modified Birth's solution (88 mM of NaCl, 1 mM of KCl, 2.4 mM of NaHCO3, 0.82 mM of MgSO4, 15 mM of HEPES, pH 7.6) under gently stirring at room temperature for 90 minutes, and washed out the enzyme from the tissue. Then, oocytes were separated from ovarian follicle by tweezers, and isolated oocytes were placed in antibiotics containing modified Birth's solution (88 mM of NaCl, 1 mM of KCl, 2.4 mM of NaHCO3, 0.82 mM of MgSO4, 15 mM of HEPES, pH 7.6, and 0.1 v/v % of mixture solution containing of penicillin and streptomycin for incubation; Sigma Co.). […] In oocytes, heterogeneous quintuple [(α4)2(β2)3] was composed by translation of injected cRNAs, and ion channel receptors were constructed on cell membrane.
(3) Agonist Activities at Human α4β2 Subtype of Nicotinic Acetylcholine Receptors
The recordings of responses at human α4β2 subtype of nicotinic acetylcholine receptors by means of membrane potential holding method were performed as follow. […] Test compounds were added to the perfusion solution, and recorded the peak strength of induced inward current. In order to normalize the responses of test compounds, the responses with acetylcholine (Ach) were recorded before and after application of the test compounds. Generally in the oocytes just after isolated, the response of intrinsic muscarinic acetylcholine receptors, which is inward current caused by activation of calcium dependence chloride ion channels with increase of the intracellular calcium concentration by stimulation of receptors, is observed. […] Therefore, the responses observed in oocytes with injection of hnACh-R α4 cRNA and hnACh-R β2 cRNA, i.e., the inward current induced by the intracellular influx of sodium ion according to the stimulation of receptors, would be the freshly observed responses of human α4β2 subtype nicotinic acetylcholine receptors.

T1 sequence (P09483 31-630): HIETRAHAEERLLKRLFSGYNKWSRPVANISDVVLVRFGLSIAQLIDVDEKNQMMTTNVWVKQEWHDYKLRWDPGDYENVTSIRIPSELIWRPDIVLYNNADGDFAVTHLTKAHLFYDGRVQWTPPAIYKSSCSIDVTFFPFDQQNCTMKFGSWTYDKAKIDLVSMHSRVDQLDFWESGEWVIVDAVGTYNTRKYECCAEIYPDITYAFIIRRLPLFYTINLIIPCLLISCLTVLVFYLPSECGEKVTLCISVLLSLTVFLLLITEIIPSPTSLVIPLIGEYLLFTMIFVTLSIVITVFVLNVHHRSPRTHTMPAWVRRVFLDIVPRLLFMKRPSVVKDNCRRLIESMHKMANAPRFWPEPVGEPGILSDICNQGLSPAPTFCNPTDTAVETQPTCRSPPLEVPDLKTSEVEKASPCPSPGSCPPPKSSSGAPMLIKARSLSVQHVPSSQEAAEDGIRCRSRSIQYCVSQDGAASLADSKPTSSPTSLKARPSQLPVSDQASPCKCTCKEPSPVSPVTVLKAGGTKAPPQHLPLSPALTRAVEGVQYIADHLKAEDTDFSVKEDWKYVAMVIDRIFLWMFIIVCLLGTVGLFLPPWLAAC
T1 sequence (P12390 25-500): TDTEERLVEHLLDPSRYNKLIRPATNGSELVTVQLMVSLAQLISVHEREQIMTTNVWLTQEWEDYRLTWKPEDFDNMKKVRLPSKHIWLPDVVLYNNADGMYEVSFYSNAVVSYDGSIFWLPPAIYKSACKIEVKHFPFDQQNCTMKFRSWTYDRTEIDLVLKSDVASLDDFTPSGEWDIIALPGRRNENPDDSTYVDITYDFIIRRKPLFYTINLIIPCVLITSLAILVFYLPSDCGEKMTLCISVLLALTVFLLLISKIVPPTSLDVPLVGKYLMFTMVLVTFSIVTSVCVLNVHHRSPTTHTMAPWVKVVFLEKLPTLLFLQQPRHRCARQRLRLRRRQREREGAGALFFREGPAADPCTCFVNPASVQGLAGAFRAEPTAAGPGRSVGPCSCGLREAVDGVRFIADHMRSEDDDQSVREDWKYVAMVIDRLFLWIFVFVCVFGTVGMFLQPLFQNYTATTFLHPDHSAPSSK
α1β1γδ subtype of nicotinic acetylcholine receptors, sequence (P25109 24-501): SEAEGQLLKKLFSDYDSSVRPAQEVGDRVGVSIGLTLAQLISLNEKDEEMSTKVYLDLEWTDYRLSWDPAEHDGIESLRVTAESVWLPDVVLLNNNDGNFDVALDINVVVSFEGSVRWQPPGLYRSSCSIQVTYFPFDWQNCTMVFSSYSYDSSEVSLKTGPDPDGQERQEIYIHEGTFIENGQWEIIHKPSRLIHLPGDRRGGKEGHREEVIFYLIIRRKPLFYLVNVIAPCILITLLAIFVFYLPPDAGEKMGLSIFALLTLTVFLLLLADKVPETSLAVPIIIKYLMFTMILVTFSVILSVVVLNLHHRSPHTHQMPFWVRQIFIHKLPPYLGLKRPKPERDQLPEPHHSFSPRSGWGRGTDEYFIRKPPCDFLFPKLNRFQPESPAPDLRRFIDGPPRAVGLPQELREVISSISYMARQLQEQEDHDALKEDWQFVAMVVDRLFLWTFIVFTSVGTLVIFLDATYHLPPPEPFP
α1β1γδ subtype of nicotinic acetylcholine receptors, sequence (P25110 22-517): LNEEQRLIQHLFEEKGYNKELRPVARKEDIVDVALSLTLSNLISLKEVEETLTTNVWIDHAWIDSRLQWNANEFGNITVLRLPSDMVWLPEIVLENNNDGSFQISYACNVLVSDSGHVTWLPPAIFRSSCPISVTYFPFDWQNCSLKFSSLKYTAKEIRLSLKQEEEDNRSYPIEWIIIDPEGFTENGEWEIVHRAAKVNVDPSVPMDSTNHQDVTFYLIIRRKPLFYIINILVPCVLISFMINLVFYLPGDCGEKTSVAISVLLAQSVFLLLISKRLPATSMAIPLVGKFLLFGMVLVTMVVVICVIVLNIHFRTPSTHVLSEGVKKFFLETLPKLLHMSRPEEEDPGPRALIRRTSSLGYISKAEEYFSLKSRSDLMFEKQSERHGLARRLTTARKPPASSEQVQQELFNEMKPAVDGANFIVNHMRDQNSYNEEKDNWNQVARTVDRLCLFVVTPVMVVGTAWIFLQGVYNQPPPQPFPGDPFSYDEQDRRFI
α1β1γδ subtype of nicotinic acetylcholine receptors, sequence (P25108 21-457): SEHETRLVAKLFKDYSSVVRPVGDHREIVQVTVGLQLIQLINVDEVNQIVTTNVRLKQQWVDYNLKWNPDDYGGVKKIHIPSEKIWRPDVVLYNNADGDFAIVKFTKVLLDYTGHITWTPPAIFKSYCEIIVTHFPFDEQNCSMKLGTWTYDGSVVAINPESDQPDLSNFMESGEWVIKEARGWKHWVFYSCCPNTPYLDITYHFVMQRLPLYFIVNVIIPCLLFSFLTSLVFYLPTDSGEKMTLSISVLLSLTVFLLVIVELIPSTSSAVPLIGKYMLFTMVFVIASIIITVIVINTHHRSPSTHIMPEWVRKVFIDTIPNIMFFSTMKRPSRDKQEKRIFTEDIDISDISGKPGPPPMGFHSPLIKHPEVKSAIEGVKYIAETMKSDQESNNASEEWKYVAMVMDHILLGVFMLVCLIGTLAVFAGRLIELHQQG
T2 sequence (P43681 29-627 limits assumed): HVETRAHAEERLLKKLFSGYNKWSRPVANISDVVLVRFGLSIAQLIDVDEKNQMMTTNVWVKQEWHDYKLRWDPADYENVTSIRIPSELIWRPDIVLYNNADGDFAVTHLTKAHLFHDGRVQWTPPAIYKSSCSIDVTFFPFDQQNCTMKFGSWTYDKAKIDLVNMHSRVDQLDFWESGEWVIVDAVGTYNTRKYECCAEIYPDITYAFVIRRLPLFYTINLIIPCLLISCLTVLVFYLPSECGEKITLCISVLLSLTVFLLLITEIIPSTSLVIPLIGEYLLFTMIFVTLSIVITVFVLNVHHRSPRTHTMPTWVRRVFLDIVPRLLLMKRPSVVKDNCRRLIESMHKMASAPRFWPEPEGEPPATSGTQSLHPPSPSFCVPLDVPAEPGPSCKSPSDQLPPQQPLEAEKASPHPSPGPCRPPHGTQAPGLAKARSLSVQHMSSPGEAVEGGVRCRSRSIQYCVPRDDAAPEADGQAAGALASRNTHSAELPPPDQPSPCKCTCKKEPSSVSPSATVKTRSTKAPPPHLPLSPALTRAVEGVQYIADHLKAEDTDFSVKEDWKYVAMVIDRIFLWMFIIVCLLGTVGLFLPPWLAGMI
T2 sequence (P17787 26-502): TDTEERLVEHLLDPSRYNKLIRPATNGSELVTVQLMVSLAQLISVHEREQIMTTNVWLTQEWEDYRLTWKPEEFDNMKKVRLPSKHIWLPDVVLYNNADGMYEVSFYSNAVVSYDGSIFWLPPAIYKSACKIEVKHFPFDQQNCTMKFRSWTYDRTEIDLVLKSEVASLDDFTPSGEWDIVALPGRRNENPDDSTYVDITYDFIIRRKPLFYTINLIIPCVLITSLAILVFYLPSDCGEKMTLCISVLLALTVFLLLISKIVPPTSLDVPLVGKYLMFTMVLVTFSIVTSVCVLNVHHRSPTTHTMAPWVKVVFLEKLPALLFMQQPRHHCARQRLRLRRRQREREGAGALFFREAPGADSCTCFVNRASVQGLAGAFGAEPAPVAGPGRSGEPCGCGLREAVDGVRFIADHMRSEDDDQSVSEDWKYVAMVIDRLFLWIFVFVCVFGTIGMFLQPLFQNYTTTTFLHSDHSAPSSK

Structure (SMILES) | Ki [1] | Ki [2] | Agonist activity: control % by response at 100 μM of the test compound [3]
CC1=NCCN1CCc1ccc(Cl)nc1 [Compound 62, 1-[2-(6-chloro-3-pyridyl)ethyl]-2-methyl-2-imidazoline] | 70 nM | 639 µM | (9.6%)
Cc1ccc(CC2=NCCN2)cn1 [Compound 45, 2-(6-methyl-3-pyridyl)methyl-2-imidazoline] | – | – | (12.0%)
Clc1ccc(CN2C=NCCC2)cn1 [Compound 27, 1-(6-chloro-3-pyridyl)methyl-1,4,5,6-tetrahydropyrimidine] | 2 nM | 45 µM | (18.0%)
Cc1ccc(CN2C=NCCC2)cn1 [Compound 57, 1-(6-methyl-3-pyridyl)methyl-1,4,5,6-tetrahydropyrimidine] | 12 nM | 86 µM | (9.1%)
C1=NCCCN1Cc1cccnc1 [Compound 58, 1-(3-pyridyl)methyl-1,4,5,6-tetrahydropyrimidine] | 6.9 nM | 32 µM | (27.9%)
